Reference: patent publication US20070128217A1 (priority 2003, published 2007)

How the values were obtained:
[1] = tested on: antibodies in sera from SARS patients (sera 1a, 1b, 2, 6, 37, 62, London, SARS-yellow, SARS-green); type: binding, human; parameters: Binding of serum 6 to linear peptides of protein X1 of SARS-CoV Urbani / Binding of serum 37 to linear peptides of protein X1 of SARS-CoV Urbani / Binding of serum 6 to looped/cyclic peptide (PEPSCAN-ELISA) / Binding of serum 37 to looped/cyclic peptide (PEPSCAN-ELISA) / Binding of serum 37 to looped/cyclic peptides of protein X1 of SARS-CoV Urbani / Binding of serum 6 to linear peptides of protein X2 / Binding of serum 37 to linear peptides of protein X2 / Binding of serum 37 to looped/cyclic peptides of protein X2 of SARS-CoV Urbani / Binding of serum 6 to linear peptides of protein M of SARS-CoV Urbani / Binding of serum 37 to linear peptides of protein M of SARS-CoV Urbani / Binding of serum 6 to looped/cyclic peptides of protein M of SARS-CoV Urbani / Binding of serum 37 to looped/cyclic peptides of protein M of SARS-CoV Urbani / Binding of serum 6 to linear peptides of protein X3 of SARS-CoV Urbani / Binding of serum 37 to linear peptides of protein X3 of SARS-CoV Urbani / Binding of serum 37 to looped/cyclic peptides of protein X3 of SARS-CoV Urbani / Binding of serum 6 to linear peptides of protein X4 of SARS-CoV Urbani / Binding of serum 37 to linear peptides of protein X4 of SARS-CoV Urbani / Binding of serum 37 to looped/cyclic peptides of protein X4 of SARS-CoV Urbani / Binding of serum 6 to linear peptides of protein X5 of SARS-CoV Urbani / Binding of serum 37 to linear peptides of protein X5 of SARS-CoV Urbani / Binding of serum 37 to looped/cyclic peptides of protein X5 of SARS-CoV Urbani / Binding of serum 6 to linear peptides of protein N of SARS-CoV Urbani / Binding of serum 37 to linear peptides of protein N of SARS-CoV Urbani / Binding of serum 6 to linear peptide (PEPSCAN-ELISA) / Binding of serum 1a to looped/cyclic peptides of protein N of SARS-CoV Urbani / Binding of serum 1b to looped/cyclic peptides of protein N of SARS-CoV Urbani / Binding of serum 2 to looped/cyclic peptides of protein N of SARS-CoV Urbani / Binding of serum 6 to looped/cyclic peptides of protein N of SARS-CoV Urbani / Binding of serum 37 to looped/cyclic peptides of protein N of SARS-CoV Urbani / Binding of serum 62 to looped/cyclic peptides of protein N of SARS-CoV Urbani / Binding of serum London to looped/cyclic peptides of protein N of SARS-CoV Urbani / Binding of serum SARS-green to looped/cyclic peptides of protein N of SARS-CoV Urbani: unit not given here
[2] = tested on: rabbit serum obtained by immunizing a rabbit with the SARS-CoV strain Frankfurt 1; type: binding; parameters: Binding of a rabbit serum to linear peptides / Binding of a rabbit serum to looped peptides / Rabbit serum linear peptides / Rabbit serum looped peptides / Binding of a rabbit serum to linear peptides of protein N of SARS-CoV Urbani (Rabbit serum linear peptides) / Binding of a rabbit serum to looped/cyclic peptides of protein N of SARS-CoV Urbani (Rabbit serum looped peptides): unit not given here
[3] = tested on: control sera (pooled serum of ten healthy LUMC hospital workers; commercial negative donor pooled serum from the Dutch bloodbank); type: binding, human; parameters: Binding of Control serum LUMC to linear peptides / Binding of Control serum Blood-bank to linear peptides / Binding of Control serum LUMC to looped peptides / Binding of Control Serum Blood-Bank to Looped peptides / Binding of Control serum LUMC to linear peptides of the protein M of SARS-CoV Urbani / Binding of Control serum Blood-bank to linear peptides of the protein M of SARS-CoV Urbani / Binding of Control serum LUMC to looped peptides of the protein M of SARS-CoV Urbani / Binding of Control Serum Blood-Bank to Looped peptides of the protein M of SARS-CoV Urbani: unit not given here

Sequence | Binding of Control Serum Blood-Bank to Looped peptides [3] | Binding of Control serum Blood-bank to linear peptides [3] | Binding of Control serum LUMC to linear peptides [3] | Binding of Control serum LUMC to looped peptides [3] | Binding of serum 1a to looped/cyclic peptides of protein X2 of SARS-CoV Urbani [1] | Binding of serum 1b to looped/cyclic peptides of protein X2 of SARS-CoV Urbani [1] | Binding of serum 2 to looped/cyclic peptides of protein X2 of SARS-CoV Urbani [1] | Binding of serum 6 to looped/cyclic peptides of protein X2 of SARS-CoV Urbani [1] | Binding of serum 37 to looped/cyclic peptides of protein X2 of SARS-CoV Urbani [1] | Binding of serum 62 to looped/cyclic peptides of protein X2 of SARS-CoV Urbani [1] | Binding of serum London to looped/cyclic peptides of protein X2 of SARS-CoV Urbani [1] | Binding of serum SARS-green to looped/cyclic peptides of protein X2 of SARS-CoV Urbani [1] | Binding of serum SARS-yellow to looped/cyclic peptides of protein X2 of SARS-CoV Urbani [1] | Binding of a rabbit serum to linear peptides [2] | Binding of a rabbit serum to looped peptides [2] | Recognition of the peptide by sera of SARS-CoV infected individuals, and form (linear, looped/cyclic) in which it is recognized [1] | further results
KFALTCTSTHFAFAC | 0.9 | 0.7 | 0.7 | 0.8 | – | – | – | – | – | – | – | – | – | – | – | – | Binding of serum 1a to linear peptides of protein X4 of SARS-CoV Urbani [1]: 0.8; Binding of serum 1a to looped/cyclic peptides of protein X4 of SARS-CoV Urbani [1]: 1.0; Binding of serum 1b to linear peptides of protein X4 of SARS-CoV Urbani [1]: 0.6; Binding of serum 1b to looped/cyclic peptides of protein X4 of SARS-CoV Urbani [1]: 0.7; Binding of serum 2 to linear peptides of protein X4 of SARS-CoV Urbani [1]: 0.5; Binding of serum 2 to looped/cyclic peptides of protein X4 of SARS-CoV Urbani [1]: 0.9; Binding of serum 6 to linear peptides of protein X4 of SARS-CoV Urbani [1]: 0.8; Binding of serum 6 to looped/cyclic peptides of protein X4 of SARS-CoV Urbani [1]: 0.7; Binding of serum 37 to linear peptides of protein X4 of SARS-CoV Urbani [1]: 0.8; Binding of serum 37 to looped/cyclic peptides of protein X4 of SARS-CoV Urbani [1]: 0.7; Binding of serum 62 to linear peptides of protein X4 of SARS-CoV Urbani [1]: 0.8; Binding of serum 62 to looped/cyclic peptides of protein X4 of SARS-CoV Urbani [1]: 0.9; Binding of serum London to linear peptides of protein X4 of SARS-CoV Urbani [1]: 0.8; Binding of serum London to looped/cyclic peptides of protein X4 of SARS-CoV Urbani [1]: 0.4; Binding of serum SARS-green to linear peptides of protein X4 of SARS-CoV Urbani [1]: 0.4; Binding of serum SARS-green to looped/cyclic peptides of protein X4 of SARS-CoV Urbani [1]: 0.8; Binding of serum SARS-yellow to linear peptides of protein X4 of SARS-CoV Urbani [1]: 0.6; Binding of serum SARS-yellow to looped/cyclic peptides of protein X4 of SARS-CoV Urbani [1]: 0.8; Rabbit serum linear peptides [2]: 0.5; Rabbit serum looped peptides [2]: 0.6
KFTTSLSLHKLLQTL | 0.5 | 0.6 | 0.4 | 0.5 | 0.5 | 0.4 | 0.5 | 0.4 | 0.5 | 0.5 | 0.6 | 0.4 | 0.3 | 0.2 | 0.4 | – | Binding of serum 1a to linear peptides of protein X2 [1]: 0.5; Binding of serum 1b to linear peptides of protein X2 [1]: 0.4; Binding of serum 2 to linear peptides of protein X2 [1]: 0.4; Binding of serum 6 to linear peptides of protein X2 [1]: 0.6; Binding of serum 37 to linear peptides of protein X2 [1]: 0.5; Binding of serum 62 to linear peptides of protein X2 [1]: 0.6; Binding of serum London to linear peptides of protein X2 [1]: 0.5; Binding of serum SARS-green to linear peptides of protein X2 [1]: 0.4; Binding of serum SARS-yellow to linear peptides of protein X2 [1]: 0.5
KGFQFICNLLLLFVT | 0.5 | 0.7 | 0.7 | 0.5 | – | – | – | – | – | – | – | – | – | 0.6 | 0.5 | – | Binding of serum 1a to linear peptides of protein X1 of SARS-CoV Urbani [1]: 0.6; Binding of serum 1a to looped/cyclic peptide (PEPSCAN-ELISA) [1]: 0.6; Binding of serum 1b to linear peptides of protein X1 of SARS-CoV Urbani [1]: 0.5; Binding of serum 1b to looped/cyclic peptide (PEPSCAN-ELISA) [1]: 0.4; Binding of serum 2 to linear peptides of protein X1 of SARS-CoV Urbani [1]: 0.6; Binding of serum 2 to looped/cyclic peptide (PEPSCAN-ELISA) [1]: 0.4; Binding of serum 6 to linear peptides of protein X1 of SARS-CoV Urbani [1]: 0.5; Binding of serum 6 to looped/cyclic peptide (PEPSCAN-ELISA) [1]: 1.0; Binding of serum 37 to linear peptides of protein X1 of SARS-CoV Urbani [1]: 0.6; Binding of serum 37 to looped/cyclic peptide (PEPSCAN-ELISA) [1]: 0.6; Binding of serum 62 to linear peptides of protein X1 of SARS-CoV Urbani [1]: 0.7; Binding of serum 62 to looped/cyclic peptide (PEPSCAN-ELISA) [1]: 0.6; Binding of serum London to linear peptides of protein X1 of SARS-CoV Urbani [1]: 0.3; Binding of serum London to looped/cyclic peptide (PEPSCAN-ELISA) [1]: 1.1; Binding of serum SARS-green to linear peptides of protein X1 of SARS-CoV Urbani [1]: 0.2; Binding of serum SARS-green to looped/cyclic peptide (PEPSCAN-ELISA) [1]: 0.4; Binding of serum SARS-yellow to linear peptides of protein X1 of SARS-CoV Urbani [1]: 0.6; Binding of serum SARS-yellow to looped/cyclic peptide (PEPSCAN-ELISA) [1]: 0.6
KHKKVSTNLCTHSFR | 0.5 | 0.9 | 0.6 | 0.7 | 0.5 | 0.0 | 0.7 | 0.4 | 0.2 | 0.4 | 0.1 | 0.3 | 0.1 | 0.4 | 0.0 | recognized in linear form | –
KKVSTNLCTHSFRKK | 0.5 | 0.7 | 0.4 | 0.8 | 0.5 | 0.3 | 0.7 | 0.5 | 0.5 | 0.6 | 0.2 | 0.3 | 0.5 | 0.3 | 0.1 | recognized in linear form | –
